Measured values taken from patent publication US8338432B2, “Derivatives of 6,7-dihydro-3H-oxazolo[3,4-a]pyrazine-5,9-dione as PDE-5 inhibitors” (Biolab Sanus Farmaceutica Ltda., priority 2010, dated 2012).
Read-outs that look alike come from different tables or passages of the source.

Legend:
[1] = system: rabbit corpus cavernosum; assay: Relaxation of noradrenaline-contracted rabbit isolated corpus cavernosum (isometric tension recording)
Description: (§1) Male New Zealand White rabbits (2-2.5 kg) were used for penis and pulmonary artery tissues, which were excised and transferred to ice-cold Kreb's solution. Two strips and four rings were obtained from each corpus cavernosum (CC) and pulmonary artery, respectively. Cavernosal strips, pulmonary artery, and urether were mounted in 10 ml organ chambers containing Kreb's solution at 37° C., pH 7.4 continuously bubbled with a mixture of 95% O2 and 5% CO2. The tissues were stretched to a resting force of 5 mN and allowed to equilibrate for 60 min. Changes in isometric force were recorded using a PowerLab 4/30 data acquisition system (Chart software, version 7.0; ADInstruments, Colo. Springs, Colo.). Cumulative concentration-response curves to compound 2 (named BL 106 in FIGS. 1, 2 and 3) (0.001-10 μM) were obtained in cavernosal strips, pulmonary artery rings, and urether contracted with noradrenaline (NOR 10 μM) (Sigma, St. Louis, Mo.). Concentration response curves to compound 2 (denoted BL 106 in FIGS. 1, 2 and 3) were constructed for each sample. For pulmonary artery, concentration response curves to compound 2 were also constructed in the presence or absence of the soluble guanylate cyclase inhibitor 1H-[1,2,4]Oxadiazolo[4,3-a]quinoxalin-1-one (ODQ 10 μM) (Sigma, St. Louis, Mo.). Control rings (treated with 40 mM DMSO) were also ran in parallel with experimental strips and rings. Noradrenaline (3 or 10 μM) caused a sustained contraction in rabbit corpus cavernosum (13.8 mN).

[2] = system: rabbit pulmonary artery; assay: Relaxation of noradrenaline-contracted rabbit isolated pulmonary artery rings (isometric tension recording)
Description: Male New Zealand White rabbits (2-2.5 kg) were used for penis and pulmonary artery tissues, which were excised and transferred to ice-cold Kreb's solution. Two strips and four rings were obtained from each corpus cavernosum (CC) and pulmonary artery, respectively. Cavernosal strips, pulmonary artery, and urether were mounted in 10 ml organ chambers containing Kreb's solution at 37° C., pH 7.4 continuously bubbled with a mixture of 95% O2 and 5% CO2. The tissues were stretched to a resting force of 5 mN and allowed to equilibrate for 60 min. Changes in isometric force were recorded using a PowerLab 4/30 data acquisition system (Chart software, version 7.0; ADInstruments, Colo. Springs, Colo.). Cumulative concentration-response curves to compound 2 (named BL 106 in FIGS. 1, 2 and 3) (0.001-10 μM) were obtained in cavernosal strips, pulmonary artery rings, and urether contracted with noradrenaline (NOR 10 μM) (Sigma, St. Louis, Mo.). Concentration response curves to compound 2 (denoted BL 106 in FIGS. 1, 2 and 3) were constructed for each sample. For pulmonary artery, concentration response curves to compound 2 were also constructed in the presence or absence of the soluble guanylate cyclase inhibitor 1H-[1,2,4]Oxadiazolo[4,3-a]quinoxalin-1-one (ODQ 10 μM) (Sigma, St. Louis, Mo.). Control rings (treated with 40 mM DMSO) were also ran in parallel with experimental strips and rings. Noradrenaline (3 or 10 μM) caused a sustained contraction in the rabbit pulmonary artery (17.4 mN).

[3] = system: human corpus cavernosum; assay: Relaxation of noradrenaline-contracted human isolated corpus cavernosum (isometric tension recording); details: human corpus cavernosum contracted with noradrenaline, 0.0001-1 μM, n=3
Description: (§2) Human corpus cavernosum and urether were obtained from discarded tissues from surgeries, which were placed in ice-cold Krebs solution for rapid transport to the laboratory.
as §1, with “Cavernosal” for “Male New Zealand White rabbits (2-2.5 kg) were used for penis and pulmonary artery tissues, which were excised and transferred to ice-cold Kreb's solution. Two strips and four rings were obtained from each corpus cavernosum (CC) and pulmonary artery, respectively. Cavernosal”, “rings.” for “rings. Noradrenaline (3 or 10 μM) caused a sustained contraction in rabbit corpus cavernosum (13.8 mN).”
Noradrenaline caused a sustained contraction in the human corpus cavernosum.

[4] = system: human urether tissue; assay: Relaxation of noradrenaline-contracted human isolated urether tissue (isometric tension recording); details: human urether contracted with noradrenaline, 0.0001-1 μM, n=3
Description: as §2
as §1, with “Cavernosal” for “Male New Zealand White rabbits (2-2.5 kg) were used for penis and pulmonary artery tissues, which were excised and transferred to ice-cold Kreb's solution. Two strips and four rings were obtained from each corpus cavernosum (CC) and pulmonary artery, respectively. Cavernosal”, “rings.” for “rings. Noradrenaline (3 or 10 μM) caused a sustained contraction in rabbit corpus cavernosum (13.8 mN).”
Noradrenaline caused a sustained contraction in the human urether tissue.

[5] = read-out: pEC50 of relaxation (converted)

Compound | Emax ([1]; Oryctolagus cuniculus, rabbit corpus cavernosum contracted with noradrenaline, n=3) | EC50 ([1]; Oryctolagus cuniculus, rabbit corpus cavernosum contracted with noradrenaline, n=3, read-out: EC50 of relaxation (bracketed after pEC50) (converted)) | EC50 ([1]; Oryctolagus cuniculus, rabbit corpus cavernosum contracted with noradrenaline, n=3, read-out: pEC50 of relaxation (converted)) | Emax ([2]; Oryctolagus cuniculus, rabbit pulmonary artery rings contracted with noradrenaline, 0.001-10 μM, n=3) | EC50 ([2]; Oryctolagus cuniculus, rabbit pulmonary artery rings contracted with noradrenaline, 0.001-10 μM, n=3, read-out: pEC50 of relaxation (converted)) | EC50 ([2]; Oryctolagus cuniculus, rabbit pulmonary artery rings contracted with noradrenaline, n=3, read-out: EC50 of relaxation (bracketed after pEC50) (converted)) | Emax [3] | EC50 [3, 5] | Emax [4] | EC50 [4, 5] | sustained contraction ([1]; rabbit corpus cavernosum, noradrenaline 3 or 10 μM) | sustained contraction ([2]; rabbit pulmonary artery, noradrenaline 3 or 10 μM)
CN1CC(=O)N2C(=C(c3c[nH]c4ccccc34)OC2c2ccc3c(c2)OCO3)C1=O (racemic) [Compound 2, (R,S)-3-(1,3-benzodioxol-5-yl)-1-(1H-indol-3-yl)-7-methyl-6,7-dihydro[1,3]oxazolo[3,4-a]pyrazine-5,8-dione] | 91% | 1200 nM | 1200 nM | 62% | 589 nM | 588 nM | 71% | 22.4 nM | 49% | 513 nM |  | 
NC[C@H](O)c1ccc(O)c(O)c1 [Noradrenaline, noradrenaline, reference compound] |  |  |  |  |  |  |  |  |  |  | 13.8 mN | 17.4 mN
